Test results reported in ChEMBL document CHEMBL5634151, “Anti-adipogenic action of a novel oxazole derivative through activation of AMPK pathway” (Eur J Med Chem, 2023).
Calls of active or inactive are those of the source. The calls are words filed in the database; no cut-off is given here.

What was measured:
[1] = system: 3T3-L1; assay: Cytotoxicity against mouse 3T3-L1 pre-adipocyte cells assessed as reduction in cell viability >20 uM incubated for 48 hrs by MTT assay; assay type: toxicity, cell-based; conditions: 3t3-l1, 48 h
[2] = system: 3T3-L1; assay: Cytotoxicity against mouse 3T3-L1 pre-adipocyte cells assessed as reduction in cell viability at 20 uM incubated for 48 hrs by MTT assay; assay type: toxicity, cell-based; conditions: 3t3-l1, 48 h
[3] = system: 3T3-L1; assay: Anti-adipogenic activity in MDI-cocktail differentiated mouse 3T3-L1 pre-adipocyte cells assessed as inhibition of adipogenesis at 20 uM by Oil Red O staining based microscopic analysis relative to control; assay type: functional
[4] = system: 3T3-L1; assay: Anti-adipogenic activity in MDI-cocktail differentiated mouse 3T3-L1 pre-adipocyte cells assessed as inhibition of adipogenesis at 30 uM by Oil Red O staining based microscopic analysis; assay type: functional, cell-based
[5] = system: 3T3-L1; assay: Anti-adipogenic activity in MDI-cocktail differentiated mouse 3T3-L1 pre-adipocyte cells assessed as inhibition of adipogenesis by Oil Red O staining based microscopic analysis; assay type: functional, cell-based

Compound | Activity [1] | Activity [2] | other results
COc1ccc(-c2cnc(-c3ccc[n+](Cc4ccc(Cl)c(Cl)c4)c3)o2)cc1.[Br-] | Toxic | Non-Toxic | inhibition at 20 µM [3]: > 70%
FC(F)(F)c1ccc(C[n+]2cccc(-c3ncc(-c4ccccc4)o3)c2)cc1.[Br-] | Toxic |  | 
Br.Cc1ccc(-c2cnc(-c3ccc[n+](Cc4ccc([N+](=O)[O-])cc4)c3)o2)cc1 | Toxic |  | 
COc1ccc(-c2cnc(-c3ccc[n+](Cc4ccc(Cl)cc4)c3)o2)cc1.[Br-] | Toxic |  | 
CC(C)=CC[n+]1cccc(-c2ncc(-c3ccccc3)o2)c1.[Br-] | Toxic |  | 
Cc1ccc(-c2cnc(-c3ccc[n+](Cc4ccc(C(F)(F)F)cc4)c3)o2)cc1.[Br-] | Toxic | Non-Toxic | inhibition at 20 µM [3]: > 70%
Cc1ccc(-c2cnc(-c3ccc[n+](Cc4ccc(Cl)c(Cl)c4)c3)o2)cc1.[Br-] | Toxic | Toxic | 
Fc1ccc(C[n+]2cccc(-c3ncc(-c4ccccc4)o3)c2)cc1.[Br-] | Toxic |  | 
COc1ccc(-c2cnc(-c3ccc[n+](Cc4cccc(C)c4)c3)o2)cc1.[Br-] | Toxic |  | 
COc1ccc(-c2cnc(-c3ccc[n+](C/C=C(/C)CCC=C(C)C)c3)o2)cc1.[Br-] | Toxic | Toxic | 
CC(C)=CC[n+]1cccc(-c2ncc(-c3ccc(Cl)cc3)o2)c1.[Br-] | Toxic |  | 
Cc1ccc(-c2cnc(-c3ccc[n+](Cc4ccc(F)cc4)c3)o2)cc1.[Br-] | Toxic |  | 
Br.O=[N+]([O-])c1ccc(C[n+]2cccc(-c3ncc(-c4ccc(Cl)cc4)o3)c2)cc1 | Toxic |  | 
CC(C)=CC[n+]1cccc(-c2ncc(-c3ccc(C)cc3)o2)c1.[Br-] | Toxic | Toxic | 
Cc1ccc(-c2cnc(-c3ccc[n+](Cc4ccc(Cl)cc4)c3)o2)cc1.[Br-] | Toxic |  | 
Br.O=[N+]([O-])c1ccc(C[n+]2cccc(-c3ncc(-c4ccccc4)o3)c2)cc1 | Toxic |  | 

Compound | Activity [1] | Activity [2] | other results
CC(C)=CCC/C(C)=C\C[n+]1cccc(-c2ncc(-c3ccc(C)cc3)o2)c1.[Br-] | Toxic | Toxic | 
Clc1ccc(C[n+]2cccc(-c3ncc(-c4ccc(Cl)cc4)o3)c2)cc1.[Br-] | Toxic |  | 
COc1ccc(-c2cnc(-c3ccc[n+](CC=C(C)C)c3)o2)cc1.[Br-] | Toxic |  | 
Br.COc1ccc(-c2cnc(-c3ccc[n+](Cc4ccc([N+](=O)[O-])cc4)c3)o2)cc1 | Toxic |  | 
Clc1ccc(C[n+]2cccc(-c3ncc(-c4ccccc4)o3)c2)cc1Cl.[Br-] | Toxic | Non-Toxic | inhibition at 20 µM [3]: > 70%
Clc1ccc(C[n+]2cccc(-c3ncc(-c4ccccc4)o3)c2)cc1.[Br-] | Toxic |  | 
COc1ccc(-c2cnc(-c3ccc[n+](Cc4ccc(F)cc4)c3)o2)cc1.[Br-] | Toxic |  | 
Clc1ccc(-c2cnc(-c3ccc[n+](Cc4ccc(Cl)c(Cl)c4)c3)o2)cc1.[Br-] | Toxic | Toxic | 
FC(F)(F)c1ccc(C[n+]2cccc(-c3ncc(-c4ccc(Cl)cc4)o3)c2)cc1.[Br-] | Toxic |  | 
Cc1cccc(C[n+]2cccc(-c3ncc(-c4ccc(Cl)cc4)o3)c2)c1.[Br-] | Toxic | Non-Toxic | inhibition at 20 µM [3]: > 70%
Cc1cccc(C[n+]2cccc(-c3ncc(-c4ccccc4)o3)c2)c1.[Br-] | Toxic |  | 
Fc1ccc(C[n+]2cccc(-c3ncc(-c4ccc(Cl)cc4)o3)c2)cc1.[Br-] | Toxic |  | 
COc1ccc(-c2cnc(-c3ccc[n+](Cc4ccc(C(F)(F)F)cc4)c3)o2)cc1.[Br-] | Toxic |  | 
CC(C)=CCC/C(C)=C\C[n+]1cccc(-c2ncc(-c3ccc(Cl)cc3)o2)c1.[Br-] | Toxic | Toxic | 
CC(C)=CCOc1ccc(-c2cnc(-c3cccnc3)o2)cc1 |  |  | Activity [4]: Active; IC50 ([5]; read-out: IC50): 103 µM; IC50 ([5]; read-out: pIC50 (converted)): 104 µM
